Reference: publication PMC4451509, “9-cis-13,14-Dihydroretinoic Acid Is an Endogenous Retinoid Acting as RXR Ligand in Mice” (PLoS Genetics, 2015)

Key:
hRARβ LBD = target: T1, hRARβ LBD (Homo sapiens, UniProt P10826); assay: non-denaturing ESI-MS; type: binding
T1 construct: gene RARB; LBD (169–414), N-terminal His-tag
T1 sequence (P10826 169-414): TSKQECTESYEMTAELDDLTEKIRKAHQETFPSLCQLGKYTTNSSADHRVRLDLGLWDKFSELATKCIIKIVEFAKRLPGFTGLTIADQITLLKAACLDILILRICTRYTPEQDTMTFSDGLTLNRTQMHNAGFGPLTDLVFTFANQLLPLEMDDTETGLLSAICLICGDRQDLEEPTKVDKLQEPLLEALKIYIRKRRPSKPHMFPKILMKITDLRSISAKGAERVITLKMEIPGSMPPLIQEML

hRARα LBD = target: T2, hRARα LBD (Homo sapiens, UniProt P10276); assay: non-denaturing ESI-MS
T2 construct: gene RARA
T2 sequence (P10276 153-421): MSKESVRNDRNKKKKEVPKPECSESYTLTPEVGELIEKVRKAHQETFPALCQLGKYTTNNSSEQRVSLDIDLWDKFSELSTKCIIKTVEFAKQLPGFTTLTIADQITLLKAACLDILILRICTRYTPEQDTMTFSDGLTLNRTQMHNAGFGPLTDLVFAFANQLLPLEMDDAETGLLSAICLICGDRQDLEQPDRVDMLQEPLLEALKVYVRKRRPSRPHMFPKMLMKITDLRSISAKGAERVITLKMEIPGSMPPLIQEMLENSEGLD

| SMILES | non-denaturing ESI-MS (hRARβ LBD) | non-denaturing ESI-MS (hRARα LBD) |
| --- | --- | --- |
| CC1=C(/C=C/C(C)=C\C=C\[C@H](C)CC(=O)O)C(C)(C)CCC1 [R-9CDHRA] | revealed that 9CDHRA (R and S) bind to all RAR LBD isotypes | revealed that 9CDHRA (R and S) bind to all RAR LBD isotypes |
| CC1=C(/C=C/C(C)=C\C=C\[C@@H](C)CC(=O)O)C(C)(C)CCC1 [S-9CDHRA] | revealed that 9CDHRA (R and S) bind to all RAR LBD isotypes | revealed that 9CDHRA (R and S) bind to all RAR LBD isotypes |
| CC1=C(/C=C/C(C)=C\C=C\C(C)=C\C(=O)O)C(C)(C)CCC1 [9CRA, 9-cis-retinoic acid] | – | percent of bound/free protein for hRAR isotypes for R- and S-9CDHRA enantiomers and 9CRA |
